Reference: patent publication US10611756B2, “Method of treating pancreatitis using 1,4-benzoxazine derivatives” (GLAXOSMITHKLINE INTELLECTUAL PROPERTY DEVELOPMENT LIMITED, priority 2015, dated 2020)
Where “and” joins values, the source holds several entries; their conditions need not be identical. Identical values can stand only once.

target: human KMO (Homo sapiens, UniProt O15229); experiment: KMO MS Rapidfire assay (RapidFire High-Throughput Mass Spectrometry, Method 1 or Method 2); details: median pIC50, in at least one of the MS Rapidfire assays (Method 1 or 2); isolated human KMO-membranes, 10 μM Kynurenine, 200 μM NADPH; values exemplary only
Sequence (O15229 whole entry): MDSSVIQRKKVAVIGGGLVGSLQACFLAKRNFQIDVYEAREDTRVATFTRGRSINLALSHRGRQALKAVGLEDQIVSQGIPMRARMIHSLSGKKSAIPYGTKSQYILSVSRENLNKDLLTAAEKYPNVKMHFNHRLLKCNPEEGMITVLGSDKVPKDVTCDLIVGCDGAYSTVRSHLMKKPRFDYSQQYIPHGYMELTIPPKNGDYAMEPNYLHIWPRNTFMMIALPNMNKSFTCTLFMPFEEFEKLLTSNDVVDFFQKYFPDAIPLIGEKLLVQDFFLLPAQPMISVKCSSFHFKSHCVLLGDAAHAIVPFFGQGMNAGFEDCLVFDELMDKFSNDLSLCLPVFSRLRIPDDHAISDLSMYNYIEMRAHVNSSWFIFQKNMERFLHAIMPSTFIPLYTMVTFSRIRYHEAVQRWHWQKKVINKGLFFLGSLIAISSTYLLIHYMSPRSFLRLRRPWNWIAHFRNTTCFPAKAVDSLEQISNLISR
Protocol: KMO inhibition can be determined by MS Rapidfire assay performed on the human cloned enzyme as described herein.
100 nL DMSO was dispensed into columns 6 and 18 for high and low controls, respectively, with prior inactivation of the enzyme in column 18 by pre-dispense of 30 μL of 0.5% (v/v) TFA.
Conditions for the assay of human KMO using isolated KMO-membranes were 50 mM HEPES, pH 7.5, 2 mM DTT, 1 mM EDTA, 100 μM CHAPS, 200 μM NADPH, 10 μM Kynurenine and 8 μg/ml KMO-membranes in a total reaction volume of 10 μL.
Assays were performed by initially dispensing 5 μL of a 2× Enzyme solution (16 μg/ml KMO-membranes in 50 mM HEPES, pH 7.5, 2 mM DTT, 2 mM EDTA, 200 μM CHAPS) into plates containing 100 nL compounds and incubating for 10 min at ambient temperature. […] All additions were made using a Multidrop Combi dispenser (Thermo Fisher Scientific).
Quenched assay plates were transferred to a high-throughput RapidFire200 integrated autosampler/solid-phase extraction (SPE) system (Agilent Technologies, Wakefield, Mass.). Samples were aspirated from each well for 500 ms and 10 μL was loaded directly onto a RapidFire micro-scale SPE C18 (type C) cartridge, which was washed for 3 s with HPLC-grade water containing 0.1% (v/v) formic acid to remove non-organic components. Analytes were then eluted into the mass spectrometer, in a 3 s elution cycle, using 80% (v/v) acetonitrile/water containing 0.1% (v/v) formic acid, and the cartridge was then equilibrated by washing with water containing 0.1% (v/v) formic acid for 500 ms. This gave a total cycle time of 7 s, enabling analysis of a 384-well plate in approximately 45 min.
Both Kyn and 3-HK were detected using a Sciex AP14000 triple quadrupole mass spectrometer (Applied Biosystems, Concord, Ontario, Canada), equipped with an electrospray interface and operated in positive ion mode. […] The mass spectrometer used an ESI voltage of 5500 V and a source temperature of 600° C., with a dwell time of 50 ms for each transition.
Using the integrated peak area for 3-HK data was analysed within ActivityBase (ID Business Solutions Ltd, Surrey, UK). Dose response curves were fitted to equation (1):
100 nL DMSO was dispensed into columns 6 and 18 for high and low controls, respectively, with prior inactivation of the enzyme in column 18 by pre-dispense of 50 μL of 0.5% (v/v) TFA.

| Structure (SMILES) | IC50 |
| --- | --- |
| CCC(Oc1cc2c(cc1Cl)N(CCC(=O)O)C(=O)CO2)c1ncc(Cl)cn1 (single isomer, unassigned) [Example 26, 3-{6-chloro-7-[1-(5-chloropyrimidin-2-yl)propoxy]-3-oxo-3,4-dihydro-2H-1,4-benzoxazin-4-yl}propanoic acid] | ≤ 31.6 nM |
| CCC(Oc1cc2c(cc1Cl)N(CCC(=O)O)C(=O)CO2)c1ncc(C)cn1 (single isomer, unassigned) [Example 23, 3-{6-chloro-7-[1-(5-methylpyrimidin-2-yl)propoxy]-3-oxo-3,4-dihydro-2H-1,4-benzoxazin-4-yl}propanoic acid] | ≤ 31.6 nM |
| CCC(Oc1cc2c(cc1Cl)N(CCC(=O)O)C(=O)CO2)c1ccc(C)nn1 (single isomer, unassigned) [Example 29, 3-{6-chloro-7-[1-(6-methylpyridazin-3-yl)propoxy]-3-oxo-3,4-dihydro-2H-1,4-benzoxazin-4-yl}propanoic acid] | ≤ 31.6 nM |
| Cc1ncc(C(C)Oc2cc3c(cc2Cl)N(CCC(=O)O)C(=O)CO3)o1 (racemic) [Example 3, 2-amino-2-(hydroxymethyl)propane-1,3-diol; 3-{6-chloro-7-[1-(2-methyl-1,3-oxazol-5-yl)ethoxy]-3-oxo-3,4-dihydro-2H-1,4-benzoxazin-4-yl}propanoic acid] | ≤ 31.6 nM |
| CC[C@@H](Oc1cc2c(cc1Cl)N(CCC(=O)O)C(=O)CO2)c1ccc(Cl)cn1 [Example 1, (R)-3-(6-Chloro-7-(1-(5-chloropyridin-2-yl)propoxy)-3-oxo-2H-benzo[b][1,4]oxazin-4(3H)-yl)propanoic Acid] | ≤ 31.6 nM and 1 nM |

The next lines start with the values.

| IC50 | Structure (SMILES) |
| --- | --- |
| ≤ 31.6 nM | CC(Oc1cc2c(cc1Cl)N(CCC(=O)O)C(=O)CO2)c1ncco1 (single isomer, unassigned) [Example 4, 2-amino-2-(hydroxymethyl)propane-1,3-diol; 3-{6-chloro-7-[1-(1,3-oxazol-2-yl)ethoxy]-3-oxo-3,4-dihydro-2H-1,4-benzoxazin-4-yl}propanoic acid] |
| ≤ 31.6 nM | O=C(O)CCN1C(=O)COc2cc(OCc3ccccn3)c(Cl)cc21 [Example 9, 3-[6-chloro-3-oxo-7-(pyridin-2-ylmethoxy)-3,4-dihydro-2H-1,4-benzoxazin-4-yl]propanoic acid] |
| ≤ 31.6 nM | CCC(Oc1cc2c(cc1Cl)N(CCC(=O)O)C(=O)CO2)c1cccnn1 (single isomer, unassigned) [Example 28, 3-{6-chloro-3-oxo-7-[1-(pyridazin-3-yl)propoxy]-3,4-dihydro-2H-1,4-benzoxazin-4-yl}propanoic acid] |
| ≤ 31.6 nM | CCC(Oc1cc2c(cc1Cl)N(CCC(=O)O)C(=O)CO2)c1ncccn1 (single isomer, unassigned) [Example 21, 3-{6-chloro-3-oxo-7-[1-(pyrimidin-2-yl)propoxy]-3,4-dihydro-2H-1,4-benzoxazin-4-yl}propanoic acid] |
| ≤ 31.6 nM | CC(Oc1cc2c(cc1Cl)N(CCC(=O)O)C(=O)CO2)c1ncccn1 (single isomer, unassigned) [Example 7, 2-amino-2-(hydroxymethyl)propane-1,3-diol; 3-{6-chloro-3-oxo-7-[1-(pyrimidin-2-yl)ethoxy]-3,4-dihydro-2H-1,4-benzoxazin-4-yl}propanoic acid] |
| ≤ 31.6 nM | CC(Oc1cc2c(cc1Cl)N(CCC(=O)O)C(=O)CO2)c1ncc[nH]1 (racemic) [Example 6, 2-amino-2-(hydroxymethyl)propane-1,3-diol; 3-{6-chloro-7-[1-(1H-imidazol-2-yl)ethoxy]-3-oxo-3,4-dihydro-2H-1,4-benzoxazin-4-yl}propanoic acid] |
